Test results taken from patent publication US7906656B2, “Iodopyrazolyl carboxanilides” (Bayer CropScience AG, priority 2003, dated 2011).

Legend:
[1] = log P determination by HPLC on reversed-phase column (EEC directive 79/831 Annex V.A8); assay type: physicochemical; details: pH 2.3, HPLC reversed-phase C18, 43° C.; for chromatographic logP: reversed-phase C18 HPLC column
Protocol: The given log P values were determined in accordance with EEC directive 79/831 Annex V.A8 by HPLC (High Performance Liquid Chromatography) on a reversed-phase column (C18). Temperature: 43° C. Mobile phases for the determination in the acidic range (pH 2.3): 0.1% aqueous phosphoric acid, acetonitrile; linear gradient from 10% acetonitrile to 90% acetonitrile. Calibration was carried out using unbranched alkan-2-ones (having 3 to 16 carbon atoms) with known log P values (determination of the log P values by the retention times using linear interpolation between two successive alkanones).

[2] = test system: Podosphaera leucotricha; test: Podosphaera test (apple)/protective; assay type: in vivo; details: 240 h, protective, application rate 100 g/ha, evaluation 10 days after inoculation, read-out: Efficacy in %
Protocol: (§1) To produce a suitable preparation of active compound, 1 part by weight of active compound is mixed with the stated amounts of solvents and emulsifier, and the concentrate is diluted with water to the desired concentration. To test for protective activity, young plants are sprayed with the preparation of active compound at the stated application rate. After the spray coating has dried on, the plants are inoculated with an aqueous spore suspension of the apple mildew pathogen Podosphaera leucotricha. The plants are then placed in a greenhouse at about 23° C. and a relative atmospheric humidity of about 70%. Evaluation is carried out 10 days after the inoculation. 0% means an efficacy which corresponds to that of the control, whereas an efficacy of 100% means that no infection is observed.

[3] = test system: Venturia inaequalis; test: Venturia test (apple)/protective; assay type: in vivo; details: 240 h, protective, application rate 100 g/ha, evaluation 10 days after inoculation, read-out: Efficacy in %
Protocol: as §1, with “conidia” for “spore”, “apple” for “apple mildew”, “Venturia inaequalis and then remain in an incubation cabin at about 20° C. and 100% relative atmospheric humidity for 1 day.” for “Podosphaera leucotricha.”, “21°” for “23°”, “90%.” for “70%.”

## Cn1cc(C(=O)O)c(I)n1 [3-iodo-1-methyl-1H-pyrazole-4-carboxylic acid]
[1]
  chromatographic logP: 0.57

## CC(CC(C)(C)C)c1ccccc1NC(=O)c1cn(C)nc1I (centres unmarked) [Compound 1]
[1]
  logP: 3.64

## Cn1cc(C(=O)Nc2ccccc2-c2ccc(Cl)c(Cl)c2)c(I)n1 [Compound 2]
[1]
  logP: 3.38

## Cn1cc(C(=O)Nc2ccccc2-c2ccc(Cl)c(F)c2)c(I)n1 [Compound 3]
[1]
  logP: 3.09

## CC(C)CC(C)c1ccccc1NC(=O)c1cn(C)nc1I (centres unmarked) [Compound 4]
[1]
  logP: 3.36

## CCCON=Cc1ccc(-c2ccccc2NC(=O)c2cn(C)nc2I)cc1F [Compound 5]
[1]
  logP: 4.00

## Cn1cc(C(=O)Nc2ccc(F)cc2-c2ccc(Cl)c(Cl)c2)c(I)n1 [Compound 6, N-(3′,4′-dichloro-5-fluoro-1,1′-biphenyl-2-yl)-3-iodo-1-methyl-1H-pyrazole-4-carboxamide]
[1]
  chromatographic logP: 3.42

## Cc1ccc(-c2ccccc2NC(=O)c2cn(C)nc2I)cc1F [Compound 7]
[1]
  logP: 3.18

## Cn1cc(C(=O)Nc2ccccc2-c2ccc(F)c(Cl)c2)c(I)n1 [Compound 8]
[1]
  logP: 3.09

## Cn1cc(C(=O)Nc2ccccc2-c2ccc(Br)cc2)c(I)n1 [Compound 9]
[1]
  logP: 3.20

## Cn1cc(C(=O)Nc2ccccc2-c2ccc(C(F)(F)F)cc2)c(I)n1 [Compound 10]
[1]
  logP: 3.24

## Cn1cc(C(=O)Nc2ccccc2-c2ccc(C(F)(F)F)c(F)c2)c(I)n1 [Compound 11]
[1]
  logP: 3.23

## CC(=CC(C)C)c1ccccc1NC(=O)c1cn(C)nc1I [Compound 12]
[1]
  logP: 3.62

## C=C(C)CC(C)(O)c1ccccc1NC(=O)c1cn(C)nc1I (centres unmarked) [Compound 13]
[1]
  logP: 2.54

## Cn1cc(C(=O)Nc2ccccc2-c2ccc(Cl)cc2)c(I)n1 [Compound 14]
[1]
  logP: 3.08

## CC(CC1CC1)c1ccccc1NC(=O)c1cn(C)nc1I (centres unmarked) [Compound 15]
[1]
  logP: 3.08

## Cn1cc(C(=O)Nc2ccccc2-c2ccc(I)cc2)c(I)n1 [Compound 16]
[1]
  logP: 3.36

## Cn1cc(C(=O)Nc2ccccc2-c2cccc(Cl)c2F)c(I)n1 [Compound 17]
[1]
  logP: 2.99

## Cn1cc(C(=O)Nc2ccccc2CCC(C)(C)C)c(I)n1 [Compound 18]
[1]
  logP: 3.34

## CC1CC(C)(C)c2cccc(NC(=O)c3cn(C)nc3I)c21 (centres unmarked) [Compound 19]
[1]
  logP: 3.27

## CC(C)CC(C)c1cc(F)ccc1NC(=O)c1cn(C)nc1I (centres unmarked) [Compound 20]
[1]
  logP: 3.39

## CC(=O)N(C(=O)c1cn(C)nc1I)c1ccccc1C(C)CC(C)C (centres unmarked) [Compound 21]
[1]
  logP: 3.68

## Cn1cc(C(=O)Nc2ccccc2C#CC(C)(C)C)c(I)n1 [Compound 22]
[1]
  logP: 3.79

## CON=C(c1ccc(-c2ccccc2NC(=O)c2cn(C)nc2I)cc1)C(F)(F)F [Compound 23]
[1]
  logP: 3.70

## CC(C)CCc1ccccc1NC(=O)c1cn(C)nc1I [Compound 24]
[1]
  logP: 3.15

## C=C(c1ccccc1NC(=O)c1cn(C)nc1I)C(C)C [Compound 25]
[1]
  logP: 3.28

## C=C(CC(C)(C)C)c1ccccc1NC(=O)c1cn(C)nc1I [Compound 26]
[1]
  logP: 3.82

## CC(C)=C(C)c1ccccc1NC(=O)c1cn(C)nc1I [Compound 27]
[1]
  logP: 3.40

## Cn1cc(C(=O)Nc2ccccc2-c2cccc(Cl)c2Cl)c(I)n1 [Compound 28]
[1]
  logP: 3.34

## Cn1cc(C(=O)Nc2ccccc2-c2ccc(C(F)(F)F)cc2Cl)c(I)n1 [Compound 30]
[1]
  logP: 3.55

## Cn1cc(C(=O)Nc2ccccc2-c2ccc(Br)c(Cl)c2)c(I)n1 [Compound 31]
[1]
  logP: 3.45

## Cn1cc(C(=O)Nc2ccccc2-c2ccc(Br)cc2Cl)c(I)n1 [Compound 32]
[1]
  logP: 3.56

## CC(CC(C)(C)C)c1ccccc1NC(=O)c1cn(C)nc1I (centres unmarked) [drawing 53]
[2]
  pest or weed control at 100 g/ha: 100%

## CC(C)CC(C)c1ccccc1NC(=O)c1cn(C)nc1I (centres unmarked) [drawing 54]
[2]
  pest or weed control at 100 g/ha: 100%

## Cn1cc(C(=O)Nc2ccccc2-c2ccc(Cl)c(Cl)c2)c(I)n1 [drawing 55]
[2]
  pest or weed control at 100 g/ha: 99%

## Cn1cc(C(=O)Nc2ccc(F)cc2-c2ccc(Cl)c(Cl)c2)c(I)n1 [drawing 56]
[2]
  pest or weed control at 100 g/ha: 100%

## Cn1cc(C(=O)Nc2ccccc2-c2ccc(F)c(Cl)c2)c(I)n1 [drawing 57]
[2]
  pest or weed control at 100 g/ha: 100%

## Cn1cc(C(=O)Nc2ccccc2-c2ccc(Br)cc2)c(I)n1 [drawing 58]
[2]
  pest or weed control at 100 g/ha: 100%

## Cn1cc(C(=O)Nc2ccccc2-c2ccc(Cl)c(F)c2)c(I)n1 [drawing 59]
[2]
  pest or weed control at 100 g/ha: 100%

## CCCO/N=C/c1ccc(-c2ccccc2NC(=O)c2cn(C)nc2I)cc1F [drawing 60]
[2]
  pest or weed control at 100 g/ha: 100%

## Cc1ccc(-c2ccccc2NC(=O)c2cn(C)nc2I)cc1F [drawing 61]
[2]
  pest or weed control at 100 g/ha: 100%

## Cn1cc(C(=O)Nc2ccccc2-c2ccc(C(F)(F)F)cc2)c(I)n1 [drawing 62]
[2]
  pest or weed control at 100 g/ha: 88%

## Cn1cc(C(=O)Nc2ccccc2-c2ccc(C(F)(F)F)c(F)c2)c(I)n1 [drawing 63]
[2]
  pest or weed control at 100 g/ha: 99%

## Cn1cc(C(=O)Nc2ccccc2-c2ccc(Cl)cc2)c(I)n1 [drawing 64]
[2]
  pest or weed control at 100 g/ha: 100%

## Cn1cc(C(=O)Nc2ccccc2-c2ccc(I)cc2)c(I)n1 [drawing 65]
[2]
  pest or weed control at 100 g/ha: 100%

## CC(C)CCc1ccccc1NC(=O)c1cn(C)nc1I [drawing 66]
[2]
  pest or weed control at 100 g/ha: 98%

## CC1CC(C)(C)c2cccc(NC(=O)c3cn(C)nc3I)c21 (centres unmarked) [drawing 67]
[2]
  pest or weed control at 100 g/ha: 100%

## CC(C)CC(C)c1cc(F)ccc1NC(=O)c1cn(C)nc1I (centres unmarked) [drawing 68]
[2]
  pest or weed control at 100 g/ha: 100%

## CC(CC(C)(C)C)c1ccccc1NC(=O)c1cn(C)nc1I (centres unmarked) [drawing 69]
[3]
  pest or weed control at 100 g/ha: 100%

## CC(C)CC(C)c1ccccc1NC(=O)c1cn(C)nc1I (centres unmarked) [drawing 70]
[3]
  pest or weed control at 100 g/ha: 100%

## Cn1cc(C(=O)Nc2ccccc2-c2ccc(Cl)c(Cl)c2)c(I)n1 [drawing 71]
[3]
  pest or weed control at 100 g/ha: 99%

## Cn1cc(C(=O)Nc2ccc(F)cc2-c2ccc(Cl)c(Cl)c2)c(I)n1 [drawing 72]
[3]
  pest or weed control at 100 g/ha: 100%

## Cn1cc(C(=O)Nc2ccccc2-c2ccc(F)c(Cl)c2)c(I)n1 [drawing 73]
[3]
  pest or weed control at 100 g/ha: 100%

## Cn1cc(C(=O)Nc2ccccc2-c2ccc(Br)cc2)c(I)n1 [drawing 74]
[3]
  pest or weed control at 100 g/ha: 100%

## Cn1cc(C(=O)Nc2ccccc2-c2ccc(Cl)c(F)c2)c(I)n1 [drawing 75]
[3]
  pest or weed control at 100 g/ha: 100%

## CCCO/N=C/c1ccc(-c2ccccc2NC(=O)c2cn(C)nc2I)cc1F [drawing 76]
[3]
  pest or weed control at 100 g/ha: 100%

## Cc1ccc(-c2ccccc2NC(=O)c2cn(C)nc2I)cc1F [drawing 77]
[3]
  pest or weed control at 100 g/ha: 97%

## Cn1cc(C(=O)Nc2ccccc2-c2ccc(C(F)(F)F)cc2)c(I)n1 [drawing 78]
[3]
  pest or weed control at 100 g/ha: 94%

## Cn1cc(C(=O)Nc2ccccc2-c2ccc(C(F)(F)F)c(F)c2)c(I)n1 [drawing 79]
[3]
  pest or weed control at 100 g/ha: 98%

## CCOC(=O)/C(C#N)=C\N(C)/N=C/c1ccccc1 [ethyl 3-(N′-benzylidene-N-methylhydrazino)-2-cyanoacrylate]
[1]
  chromatographic logP: 2.31

## CCOC(=O)c1cn(C)nc1N [ethyl 3-amino-1-methyl-1H-pyrazole-4-carboxylate]
[1]
  chromatographic logP: 0.72

## CCOC(=O)c1cn(C)nc1I [ethyl 3-iodo-1-methyl-1H-pyrazole-4-carboxylate]
[1]
  chromatographic logP: 1.74
